Test results taken from patent US20250195513A1, “DEGRADATION OF IRAK4 BY CONJUGATION OF IRAK4 INHIBITORS WITH E3 LIGASE LIGAND AND METHODS OF USE” (BeiGene, Ltd., priority 2022, published 2025).

How the values were obtained:
IRAK4 [1] = biological target: T1, IRAK4 (Homo sapiens, UniProt Q9NWZ3); test: IRAK4 Degradation Assay (Karpas299, HTRF/TR-FRET); assay type: cell-based; settings: Karpas-299 cells; for Dmax: maximum percentage of degradation
T1 construct: endogenous in cells; host or cells: Karpas299
T1 sequence (Q9NWZ3 1-460): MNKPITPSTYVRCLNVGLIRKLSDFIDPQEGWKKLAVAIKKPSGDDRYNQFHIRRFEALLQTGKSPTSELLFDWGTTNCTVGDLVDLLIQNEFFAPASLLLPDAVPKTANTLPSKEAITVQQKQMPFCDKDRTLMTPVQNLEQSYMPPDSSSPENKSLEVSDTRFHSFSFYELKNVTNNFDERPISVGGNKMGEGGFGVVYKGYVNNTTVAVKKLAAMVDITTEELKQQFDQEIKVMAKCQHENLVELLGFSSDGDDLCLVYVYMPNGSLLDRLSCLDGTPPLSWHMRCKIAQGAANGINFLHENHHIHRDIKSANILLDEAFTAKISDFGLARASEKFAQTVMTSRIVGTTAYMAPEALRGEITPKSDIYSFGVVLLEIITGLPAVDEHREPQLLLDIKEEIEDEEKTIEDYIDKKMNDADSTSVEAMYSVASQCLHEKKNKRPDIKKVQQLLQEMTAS
Procedure, shortened: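 Compound potency as DC50 (IC50) came from four-parameter fits of percent IRAK4 degradation. IRAK4 was measured by HTRF (665/620 nm) in lysates of Karpas299 cells seeded at 0.2 million per well. Cells had been treated with compound dilutions for 5 or 24 h.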

IRAK4 [2] = biological target: T1, IRAK4; test: IRAK4 Degradation Assay with Human Serum (Karpas299, HTRF/TR-FRET); assay type: cell-based; settings: Karpas-299 in human serum, 24 hrs treatment; for DC50: read-out: IRAK4 degradtion with human serum assay DC50; for Dmax: read-out: IRAK4 degradtion with human serum assay Dmax (%)
Procedure, shortened: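 Remaining IRAK4 measured by TR-FRET immunoassay on lysates of Karpas299 cells exposed 24 h to compound dilution series in human serum AB. DC50 derived from a Hill-slope fit of % degradation versus concentration.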

[3] = 24 h treatment, read-out: IRAK4 in Karpas-299 (24 h) Dmax (%)
[4] = 24 h treatment, read-out: IRAK4 in Karpas-299 (24 h) DC50

Row | Dmax (IRAK4 [1]; [3]) | DC50 (IRAK4 [1]; [4]) | DC50 (IRAK4 [2]) | Dmax (IRAK4 [2]) | Dmax (IRAK4 [1]; 5 h treatment, read-out: IRAK4 in Karpas-299 (5 h) Dmax (%)) | DC50 (IRAK4 [1]; 5 h treatment, read-out: IRAK4 in Karpas-299 (5 h) DC50) | Compound
1 | 97% | 1.5 nM | 15 nM | 96% | – | – | CC(C)(O)c1cc2nn(C3CCN([C@@H]4CCN(C5CCN(c6cc(F)c([C@H]7CCC(=O)NC7=O)c(F)c6)CC5)CC4(F)F)CC3)cc2cc1NC(=O)c1ccc2cc(C#N)cnn12 [Example 341, 3-cyano-N-(2-((R)-1″-(4-((R)-2,6-dioxopiperidin-3-yl)-3,5-difluorophenyl)-3′,3′-difluoro-[1,4′:1′,4″-terpiperidin]-4-yl)-6-(2-hydroxypropan-2-yl)-2H-indazol-5-yl)pyrrolo[1,2-b]pyridazine-7-carboxamide]
2 | 96% | 1.7 nM | 5.1 nM | 99% | – | – | C[C@H]1CN(CCc2cc(F)c([C@H]3CCC(=O)NC3=O)c(F)c2)CCN1[C@H]1CC[C@H](n2cc3cc(NC(=O)c4ccc5cc(C#N)cnn45)c(C(C)(C)O)cc3n2)CC1 [Example 305, 3-cyano-N-(2-((1S,4r)-4-((S)-4-(4-((R)-2,6-dioxopiperidin-3-yl)-3,5-difluorophenethyl)-2-methylpiperazin-1-yl)cyclohexyl)-6-(2-hydroxypropan-2-yl)-2H-indazol-5-yl)pyrrolo[1,2-b]pyridazine-7-carboxamide]
3 | 97% | 3.5 nM | 10 nM | 96% | – | – | CC(C)(O)c1cc2nn([C@H]3CC[C@H](C4CCN(C5CCN(c6cc(F)c([C@H]7CCC(=O)NC7=O)c(F)c6)CC5)CC4)CC3)cc2cc1NC(=O)c1ccc2cc(C#N)cnn12 [Example 409, 3-cyano-N-(2-((1r,4r)-4-(1′-(4-((R)-2,6-dioxopiperidin-3-yl)-3,5-difluorophenyl)-[1,4′-bipiperidin]-4-yl)cyclohexyl)-6-(2-hydroxypropan-2-yl)-2H-indazol-5-yl)pyrrolo[1,2-b]pyridazine-7-carboxamide]
4 | 94% | 1.6 nM | 8.7 nM | 95% | – | – | CC(C)(O)c1cc2nn([C@H]3CC[C@H](N4CCN(C[C@@H]5CCN(c6ccc7c(c6)C(=O)N(C6CCC(=O)NC6=O)C7=O)C5)CC4)CC3)cc2cc1NC(=O)c1ccc2cc(C#N)cnn12 (stereo partly drawn) [Example 431, 3-cyano-N-(2-((1S,4r)-4-(4-(((3S)-1-(2-(2,6-dioxopiperidin-3-yl)-1,3-dioxoisoindolin-5-yl)pyrrolidin-3-yl)methyl)piperazin-1-yl)cyclohexyl)-6-(2-hydroxypropan-2-yl)-2H-indazol-5-yl)pyrrolo[1,2-b]pyridazine-7-carboxamide]
5 | 97% | 0.1 nM | 2.3 nM | 102% | – | – | COc1cc2nn([C@H]3CC[C@H](N4CCN(C(=O)C5CN(c6cc(F)c([C@H]7CCC(=O)NC7=O)c(F)c6)C5)CC4)CC3)cc2cc1C(=O)Nc1cnc2cccnn12 [Example 343, 2-((1r,4r)-4-(4-(1-(4-((R)-2,6-dioxopiperidin-3-yl)-3,5-difluorophenyl)azetidine-3-carbonyl)piperazin-1-yl)cyclohexyl)-N-(imidazo[1,2-b]pyridazin-3-yl)-6-methoxy-2H-indazole-5-carboxamide]
6 | 94% | 2.1 nM | 14 nM | 98% | – | – | COC[C@H]1CN(C2CN(c3cc(F)c([C@H]4CCC(=O)NC4=O)c(F)c3)C2)CCN1[C@H]1CC[C@H](n2cc3cc(NC(=O)c4ccc5cc(C#N)cnn45)c(C(C)(C)O)cc3n2)CC1 [Example 323, 3-cyano-N-(2-((1R,4r)-4-((R)-4-(1-(4-((R)-2,6-dioxopiperidin-3-yl)-3,5-difluorophenyl)azetidin-3-yl)-2-(methoxymethyl)piperazin-1-yl)cyclohexyl)-6-(2-hydroxypropan-2-yl)-2H-indazol-5-yl)pyrrolo[1,2-b]pyridazine-7-carboxamide]
7 | 96% | 1.3 nM | 25 nM | 103% | 93% | 2.2 nM | CC(C)(O)c1cc2nn(C3CCN(C4CCN(C(=O)[C@@H]5CCN(c6cc(F)c([C@H]7CCC(=O)NC7=O)c(F)c6)C5)CC4)CC3)cc2cc1NC(=O)c1ccc2cc(C#N)cnn12 [Example 347, 3-cyano-N-(2-(1′-((R)-1-(4-((R)-2,6-dioxopiperidin-3-yl)-3,5-difluorophenyl)pyrrolidine-3-carbonyl)-[1,4′-bipiperidin]-4-yl)-6-(2-hydroxypropan-2-yl)-2H-indazol-5-yl)pyrrolo[1,2-b]pyridazine-7-carboxamide]
8 | 97% | 2.4 nM | 57 nM | 97% | – | – | CC(C)(O)c1cc2nn([C@H]3CC[C@H](N4CCN(C(=O)[C@@H]5CCN(c6cc(F)c(N7CCC(=O)NC7=O)c(F)c6)C5)CC4)CC3)cc2cc1NC(=O)c1ccc2cc(C#N)cnn12 [Example 106, 3-cyano-N-(2-((1R,4r)-4-(4-((R)-1-(4-(2,4-dioxotetrahydropyrimidin-1(2H)-yl)-3,5-difluorophenyl)pyrrolidine-3-carbonyl)piperazin-1-yl)cyclohexyl)-6-(2-hydroxypropan-2-yl)-2H-indazol-5-yl)pyrrolo[1,2-b]pyridazine-7-carboxamide]
9 | 97% | 1.4 nM | 15 nM | 98% | – | – | CC(C)(O)c1cc2nn([C@H]3CC[C@H](N4CCN(C5CCN(c6ccc7c(c6)C(=O)N(C6CCC(=O)NC6=O)C7=O)CC5)CC4)CC3)cc2cc1NC(=O)c1ccc2cc(C#N)cnn12 (stereo partly shown) [Example 430, 3-cyano-N-(2-((1r,4r)-4-(4-(1-(2-(2,6-dioxopiperidin-3-yl)-1,3-dioxoisoindolin-5-yl)piperidin-4-yl)piperazin-1-yl)cyclohexyl)-6-(2-hydroxypropan-2-yl)-2H-indazol-5-yl)pyrrolo[1,2-b]pyridazine 7-carboxamide]
10 | 97% | 3.9 nM | 28 nM | 94% | – | – | CC(C)(O)c1cc2nn([C@H]3CC[C@H](N4CCN(CC5CN(c6cc(F)c(N7CCC(=O)NC7=O)c(F)c6)C5)CC4)CC3)cc2cc1NC(=O)c1ccc2cc(C#N)cnn12 [Example 108, 3-cyano-N-(2-((1r,4r)-4-(4-((1-(4-(2,4-dioxotetrahydropyrimidin-1(2H)-yl)-3,5-difluorophenyl)azetidin-3-yl)methyl)piperazin-1-yl)cyclohexyl)-6-(2-hydroxypropan-2-yl)-2H-indazol-5-yl)pyrrolo[1,2-b]pyridazine-7-carboxamide]
11 | 96% | 10.8 nM | 14 nM | 85% | – | – | CC(C)(O)c1cc2nn([C@H]3CC[C@H](CN4CCN(C5CCN(c6ccc7c(c6)C(=O)N(C6CCC(=O)NC6=O)C7=O)CC5)CC4)CC3)cc2cc1NC(=O)c1ccc2cc(C#N)cnn12 (stereo partly shown) [Example 436, 3-cyano-N-(2-((1r,4r)-4-((4-(1-(2-(2,6-dioxopiperidin-3-yl)-1,3-dioxoisoindolin-5-yl)piperidin-4-yl)piperazin-1-yl)methyl)cyclohexyl)-6-(2-hydroxypropan-2-yl)-2H-indazol-5-yl)pyrrolo[1,2-b]pyridazine-7-carboxamide]
